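Protocol summary: plate cells (96-well), add compound at 5 concentrations, incubate 48 h, interpolate endpoints linearly. TGI: total growth inhibition.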
What was measured:
Experiment in all cases: NCI tumour cell line growth inhibition, 48 h
CCRF-CEM leukemia = system: CCRF-CEM leukemia
NCI/ADR-RES ovarian = system: NCI/ADR-RES ovarian
RPMI-8226 leukemia = system: RPMI-8226 leukemia
PC-3 prostate = system: PC-3 prostate
UO-31 renal = system: UO-31 renal
COLO 205 colon = system: COLO 205 colon
MDA-MB-435 = system: MDA-MB-435
A498 renal = system: A498 renal
SNB-75 CNS = system: SNB-75 CNS
IGROV1 ovarian = system: IGROV1 ovarian
SF-539 CNS = system: SF-539 CNS
CAKI-1 renal = system: CAKI-1 renal
OVCAR-5 ovarian = system: OVCAR-5 ovarian
HOP-62 NSCLC = system: HOP-62 NSCLC
MDA-MB-231 breast = system: MDA-MB-231 breast
MCF7 breast = system: MCF7 breast
SK-MEL-2 melanoma = system: SK-MEL-2 melanoma
OVCAR-3 ovarian = system: OVCAR-3 ovarian
786-0 renal = system: 786-0 renal
NCI-H522 lung = system: NCI-H522 lung
KM12 colon = system: KM12 colon
UACC-257 melanoma = system: UACC-257 melanoma
SN12C renal = system: SN12C renal
U251 CNS = system: U251 CNS
RXF 393 renal = system: RXF 393 renal
HCC-2998 colon = system: HCC-2998 colon
SF-268 CNS = system: SF-268 CNS
SK-OV-3 ovarian = system: SK-OV-3 ovarian
HT29 colon = system: HT29 colon
EKVX NSCLC = system: EKVX NSCLC
NCI-H226 lung = system: NCI-H226 lung
HCT-116 colon = system: HCT-116 colon
SF-295 CNS = system: SF-295 CNS
T-47D breast = system: T-47D breast
SR leukemia = system: SR leukemia
MOLT-4 leukemia = system: MOLT-4 leukemia
SK-MEL-5 melanoma = system: SK-MEL-5 melanoma
A549 NSCLC = system: A549 NSCLC
HCT-15 colon = system: HCT-15 colon
MALME-3M melanoma = system: MALME-3M melanoma
HS 578T breast = system: HS 578T breast
ACHN renal = system: ACHN renal
MDA-N = system: MDA-N
NCI-H23 lung = system: NCI-H23 lung
SW-620 colon = system: SW-620 colon
HOP-92 NSCLC = system: HOP-92 NSCLC
DU-145 prostate = system: DU-145 prostate
NCI-H460 lung = system: NCI-H460 lung
UACC-62 melanoma = system: UACC-62 melanoma
OVCAR-4 ovarian = system: OVCAR-4 ovarian
BT-549 breast = system: BT-549 breast
OVCAR-8 ovarian = system: OVCAR-8 ovarian
K-562 leukemia = system: K-562 leukemia
TK-10 renal = system: TK-10 renal
SNB-19 CNS = system: SNB-19 CNS
LOX IMVI melanoma = system: LOX IMVI melanoma
SK-MEL-28 melanoma = system: SK-MEL-28 melanoma
HL-60(TB) leukemia = system: HL-60(TB) leukemia
M14 melanoma = system: M14 melanoma

For `CCOC(=O)/C=C/[C@H](O[Si](CC)(CC)CC)C(C)(C)C`, the TGI (CCRF-CEM leukemia) was 48.6 µM, the TGI (NCI/ADR-RES ovarian) was > 100 µM and the TGI (RPMI-8226 leukemia) was 41.3 µM. For the same molecule, the TGI (PC-3 prostate) was > 100 µM, the TGI (UO-31 renal) was > 100 µM and the TGI (COLO 205 colon) was > 100 µM. For the same molecule, the TGI (MDA-MB-435) was > 100 µM, the TGI (A498 renal) was > 100 µM and the TGI (SNB-75 CNS) was > 100 µM. The TGI (IGROV1 ovarian) was > 100 µM, the TGI (SF-539 CNS) was > 100 µM and the TGI (CAKI-1 renal) was > 100 µM. The TGI (OVCAR-5 ovarian) was > 100 µM, the TGI (HOP-62 NSCLC) was > 100 µM and the TGI (MDA-MB-231 breast) was > 100 µM. For the same molecule, the TGI (MCF7 breast) was 66.9 µM, the TGI (SK-MEL-2 melanoma) was 80.6 µM and the TGI (OVCAR-3 ovarian) was > 100 µM. The TGI (786-0 renal) was > 100 µM, the TGI (NCI-H522 lung) was > 100 µM and the TGI (KM12 colon) was > 100 µM. For the same molecule, the TGI (UACC-257 melanoma) was > 100 µM, the TGI (SN12C renal) was > 100 µM and the TGI (U251 CNS) was 65.8 µM. For the same molecule, the TGI (RXF 393 renal) was > 100 µM, the TGI (HCC-2998 colon) was > 100 µM and the TGI (SF-268 CNS) was > 100 µM. For the same molecule, the TGI (SK-OV-3 ovarian) was > 100 µM, the TGI (HT29 colon) was > 100 µM and the TGI (EKVX NSCLC) was > 100 µM. The TGI (NCI-H226 lung) was > 100 µM, the TGI (HCT-116 colon) was > 100 µM and the TGI (SF-295 CNS) was > 100 µM. The TGI (T-47D breast) was > 100 µM, the TGI (SR leukemia) was 50.7 µM and the TGI (MOLT-4 leukemia) was > 100 µM. The TGI (SK-MEL-5 melanoma) was > 100 µM, the TGI (A549 NSCLC) was > 100 µM and the TGI (HCT-15 colon) was > 100 µM. For the same molecule, the TGI (MALME-3M melanoma) was > 100 µM, the TGI (HS 578T breast) was > 100 µM and the TGI (ACHN renal) was > 100 µM. The TGI (MDA-N) was > 100 µM, the TGI (NCI-H23 lung) was > 100 µM and the TGI (SW-620 colon) was > 100 µM. The TGI (HOP-92 NSCLC) was > 100 µM, the TGI (DU-145 prostate) was > 100 µM and the TGI (NCI-H460 lung) was > 100 µM. For the same molecule, the TGI (UACC-62 melanoma) was > 100 µM, the TGI (OVCAR-4 ovarian) was > 100 µM and the TGI (BT-549 breast) was > 100 µM. The TGI (OVCAR-8 ovarian) was > 100 µM, the TGI (K-562 leukemia) was > 100 µM and the TGI (TK-10 renal) was > 100 µM. The TGI (SNB-19 CNS) was > 100 µM and the TGI (LOX IMVI melanoma) was 46.2 µM.
With `O=C(c1ccccc1)c1c(-c2ccccc2)n(-c2ccccc2)[nH]c(=O)c1=O` the TGI (CCRF-CEM leukemia) was 35.5 µM, the TGI (NCI/ADR-RES ovarian) was > 100 µM and the TGI (RPMI-8226 leukemia) was > 100 µM. For the same molecule, the TGI (SK-MEL-28 melanoma) was > 100 µM, the TGI (PC-3 prostate) was 32.9 µM and the TGI (HL-60(TB) leukemia) was 85 µM. For the same molecule, the TGI (UO-31 renal) was > 100 µM, the TGI (COLO 205 colon) was > 100 µM and the TGI (MDA-MB-435) was > 100 µM. For the same molecule, the TGI (A498 renal) was > 100 µM, the TGI (IGROV1 ovarian) was > 100 µM and the TGI (SF-539 CNS) was 46.8 µM. For the same molecule, the TGI (CAKI-1 renal) was > 100 µM, the TGI (OVCAR-5 ovarian) was > 100 µM and the TGI (HOP-62 NSCLC) was > 100 µM. The TGI (MDA-MB-231 breast) was 84.9 µM, the TGI (MCF7 breast) was > 100 µM and the TGI (SK-MEL-2 melanoma) was 65.7 µM. The TGI (OVCAR-3 ovarian) was > 100 µM, the TGI (786-0 renal) was > 100 µM and the TGI (NCI-H522 lung) was 38.3 µM. For the same molecule, the TGI (KM12 colon) was > 100 µM, the TGI (UACC-257 melanoma) was > 100 µM and the TGI (SN12C renal) was > 100 µM. For the same molecule, the TGI (U251 CNS) was > 100 µM, the TGI (HCC-2998 colon) was > 100 µM and the TGI (SF-268 CNS) was > 100 µM. For the same molecule, the TGI (SK-OV-3 ovarian) was > 100 µM, the TGI (HT29 colon) was > 100 µM and the TGI (M14 melanoma) was > 100 µM. For the same molecule, the TGI (EKVX NSCLC) was > 100 µM, the TGI (NCI-H226 lung) was > 100 µM and the TGI (HCT-116 colon) was > 100 µM. For the same molecule, the TGI (SF-295 CNS) was > 100 µM, the TGI (T-47D breast) was > 100 µM and the TGI (SR leukemia) was > 100 µM. For the same molecule, the TGI (MOLT-4 leukemia) was > 100 µM, the TGI (SK-MEL-5 melanoma) was > 100 µM and the TGI (A549 NSCLC) was > 100 µM. For the same molecule, the TGI (HCT-15 colon) was > 100 µM, the TGI (MALME-3M melanoma) was > 100 µM and the TGI (HS 578T breast) was 62.1 µM. The TGI (ACHN renal) was > 100 µM, the TGI (MDA-N) was > 100 µM and the TGI (NCI-H23 lung) was > 100 µM. The TGI (HOP-92 NSCLC) was > 100 µM, the TGI (DU-145 prostate) was > 100 µM and the TGI (NCI-H460 lung) was > 100 µM. For the same molecule, the TGI (UACC-62 melanoma) was 75.5 µM, the TGI (OVCAR-4 ovarian) was > 100 µM and the TGI (BT-549 breast) was 91.7 µM. For the same molecule, the TGI (OVCAR-8 ovarian) was > 100 µM, the TGI (K-562 leukemia) was 81.4 µM and the TGI (TK-10 renal) was > 100 µM. For the same molecule, the TGI (SNB-19 CNS) was > 100 µM and the TGI (LOX IMVI melanoma) was > 100 µM.
